# Laboratory results reported in US12616698B2, “Methods for reducing liver fat and for treating fatty liver disorders” (Corcept Therapeutics Incorporated, priority 2021, dated 2026).
# Test system: C57BL/6J male mice
# Assay: AMLN diet NASH mouse model, drug provided in the AMLN diet
# Assay type: in vivo
# Conditions: 60 mg/kg mifepristone in AMLN diet, 8 weeks, vs diet-alone control (FIG. 8A)
# Method: Two studies were conducted in C57BL/6J male mice (n=12 per group) maintained on a diet high in fat (40%), cholesterol (2%) and fructose (20%; referred to as the AMLN diet: see, e.g., Tolbol et al., World Journal of Gastroenterology, 24(2):179-194 (2018)) for 42 weeks before dosing with miricorilant was initiated. In the first study, all animals ate the AMLN diet, and received either placebo, 30 mg/kg miricorilant, or 60 mg/kg mifepristone once per day orally. […] All animals received the AMLN diet for 42 weeks prior to receiving their first dose of study drug or placebo. 4 weeks prior to receiving that first dose, a liver biopsy and histological examination of biopsy tissue was performed for each animal; 3 weeks prior to receiving that first dose, animals were randomized into three groups: control, miricorilant, or mifepristone. Only mice with fibrosis stage >=1 and steatosis score >=2 were allowed in the study and the groups were stratified according to liver col1a1 so that each study group had similar overall distributions of liver col1a1 among the mice. All animals continued on the study diet for the 3 weeks following randomization, at which time study drug or placebo administration began. All animals received their assigned drugs for 8 weeks (the 8 week in vivo study period). At 56 days (week 8) after initiation of drug administration, plasma ALT, AST, triglycerides, total cholesterol, and miricorilant levels were measured, and animals were sacrificed, liver necropsies were performed, liver histological ((NAFLD Activity Score, Fibrosis Stage, steatosis (scored using hematoxylin and eosin staining (HE)), col1a (scored using immunohistochemistry (IHC)) and Galectin-3 (IHC)) and liver biochemical measurements (including liver triglycerides and total cholesterol) were made, and liver and plasma samples were obtained for genetic ((e.g., RNA sequencing) and other analyses.
# Thus, in these studies, the mice were subjected to a liver biopsy approximately 4 weeks before initiation of dosing with miricorilant and only mice with confirmed fibrosis (fibrosis stage ≥1) and steatosis (score ≥2) were entered into the study. At the end of the dosing period, blood samples were collected for determination of plasma ALT, AST, triglycerides, total cholesterol, and miricorilant. Liver samples were collected for analysis of triglycerides, total cholesterol, hydroxyproline, and histopathology. Body weight and food consumption were monitored throughout the study.
# Type I collagen IHC staining Type I collagen (Southern Biotech, Cat. 1310-01) IHC were performed using standard procedures. Briefly, after antigen retrieval and blocking of endogenous peroxidase activity, slides were incubated with primary antibody. The primary antibody was detected using a polymeric HRP-linker antibody conjugate. Next, the primary antibody was visualized with DAB as chromogen. Finally, sections were counterstained in hematoxylin and cover-slipped.
# Liver Galectin-3 content Galectin-3 (Biolegend, Cat. #125402) IHC was performed using standard procedures. Briefly, after antigen retrieval and blocking of endogenous peroxidase activity, slides were incubated with primary antibody. The primary antibody was detected using a linker secondary antibody followed by amplification using a polymeric HRP-linker antibody conjugate. Next, the primary antibody was visualized with DAB as chromogen. Finally, sections were counterstained in hematoxylin and cover-slipped.
# Total liver col1a1 was evaluated from liver samples stained with anti-type I collagen (col1a1) (Southern Biotech, cat. 1310-01) at the end of the treatment period (typically using low power (20×) magnification). Galectin-3 content was evaluated from images of liver samples stained with anti-Galectin-3 (BioLegend, Cat. 125402) at the end of the treatment period (typically using low power (20×) magnification). Terminal relative (left) and total (right) liver type I Collagen (Col1a1) quantification was determined by morphometry. […]
smiles,measurement,value
"CC#C[C@]1(O)CC[C@H]2[C@@H]3CCC4=CC(=O)CCC4=C3[C@@H](c3ccc(N(C)C)cc3)C[C@@]21C [mifepristone, reference compound]",Liver weight at termination of the study,significantly increased
